# Assay: Partition coefficient (logP)
# Conditions: octanol/water
row,SMILES,logP
1,Clc1ccc(Cl)c(-c2cc(Cl)c(Cl)cc2Cl)c1,6.49
2,Clc1c(Cl)c(Cl)c(-c2ccccc2)c(Cl)c1Cl,6.52
3,Clc1ccc(Cl)c(-c2ccccc2Cl)c1,5.6
4,Clc1ccc(-c2ccc(Cl)cc2)cc1,5.58
5,Clc1ccccc1-c1ccccc1Cl,4.73
6,Clc1cc(-c2cc(Cl)c(Cl)c(Cl)c2)cc(Cl)c1Cl,7.55
7,"Clc1cc(Cl)c(-c2cc(Cl)c(Cl)cc2Cl)cc1Cl [2,2',4,4',5,5'-HEXACHLOROBIPHENYL]",6.8
8,Clc1ccc(-c2c(Cl)cc(Cl)c(Cl)c2Cl)c(Cl)c1Cl,6.99
9,Clc1cc(Cl)c(Cl)c(-c2c(Cl)c(Cl)cc(Cl)c2Cl)c1Cl,7.15
